The values below come from patent US10987359B2, “Oxadiazepinone derivatives and methods of treating hepatitis B infections” (priority 2016, dated 2021).

pEC50: −log10 of the molar value.

The term pEC50 denotes −log10 of the EC50, conventionally taken in molar units.

One assay concerns HBV. Kind of assay: HBV replication inhibition assay (BDNA assay) in HepG2.2.15 cells. The format is cell-based. The note with it: HBV replication assay (BDNA assay), HepG2.2.15 cells; read-out: DNA EC50. The method, then: HBV replication inhibition by the disclosed compounds were determined in cells infected or transfected with HBV or cells with stably integrated HBV, such as HepG2.2.15 cells (Sells et al. 1987). In this example, HepG2.2.15 cells were maintained in cell culture medium containing 10% fetal bovine serum (FBS), Geneticin, L-glutamine, penicillin and streptomycin. HepG2.2.15 cells were seeded in 96-well plates at a density of 40,000 cells/well and were treated with serially diluted compounds at a final DMSO concentration of 0.5% either alone or in combination by adding drugs in a checker box format. Cells were incubated with compounds for three days, after which medium was removed and fresh medium containing compounds was added to cells and incubated for another three days. At day 6, supernatant was removed and treated with DNase at 37° C. for 60 minutes, followed by enzyme inactivation at 75° C. for 15 minutes. Encapsidated HBV DNA was released from the virions and covalently linked HBV polymerase by incubating in lysis buffer (Affymetrix QS0010) containing 2.5 μg proteinase K at 50° C. for 40 minutes. HBV DNA was denatured by addition of 0.2 M NaOH and detected using a branched DNA (BDNA) QuantiGene assay kit according to manufacturer recommendation (Affymetrix). HBV DNA levels were also quantified using qPCR, based on amplification of encapsidated HBV DNA extraction with QuickExtraction Solution (Epicentre Biotechnologies) and amplification of HBV DNA using HBV specific PCR probes that can hybridize to HBV DNA and a fluorescently labeled probe for quantitation. In addition, cell viability of HepG2.2.15 cells incubated with test compounds alone or in combination was determined by using CellTitre-Glo reagent according to the manufacturer protocol (Promega). The mean background signal from wells containing only culture medium was subtracted from all other samples, and percent inhibition at each compound concentration was calculated by normalizing to signals from HepG2.2.15 cells treated with 0.5% DMSO using equation E1. % inhibition=(DMSOave−Xi)/DMSOave×100% E1: […]
where DMSOave is the mean signal calculated from the wells that were treated with DMSO control (0% inhibition control) and Xi is the signal measured from the individual wells. EC50 values, effective concentrations that achieved 50% inhibitory effect, were determined by non-linear fitting using Graphpad Prism software (San Diego, Calif.) and equation E2: Y=Y min+(Y max−Y min)/(1+10(Log EC50−X)×HillSlope) E2: […]
where Y represents percent inhibition values and X represents the logarithm of compound concentrations.
Selected disclosed compounds were assayed in the HBV replication assay (BDNA assay), as described above, and a representative group of these active compounds is shown in Table 7. […] In Table 7, “A” represents 1<EC50≤100; “B” represents 100<EC50≤500; “C” represents 500<EC50≤1000; and “D” represents EC50>1000.
For the compound `CCN1OC(CO)Cn2nc3c(c2C1=O)CN(C(=O)Nc1ccc(F)c(Cl)c1)CC3` (single isomer, unassigned) [Compound 060_E2, (R*)—N-(3-chloro-4-fluorophenyl)-2-ethyl-4-(hydroxymethyl)-1-oxo-1,4,5,8,9,11-hexahydropyrido[4′,3′:3,4]pyrazolo[5,1-d][1,2,5]oxadiazepine-10(2H)-carboxamide], the pEC50 was 7.00 to 9.00.

Regarding `Cc1cc(NC(=O)N2Cc3c(nn4c3C(=O)N(C)OC(CO)C4)C[C@H]2C)ccc1F` (single isomer, unassigned) [Compound 083_E2, (4R*,9R)—N-(4-fluoro-3-methylphenyl)-4-(hydroxymethyl)-2,9-dimethyl-1-oxo-1,4,5,8,9,11-hexahydropyrido[4′,3′:3,4]pyrazolo [5,1-d][1,2,5]oxadiazepine-10(2H)-carboxamide], the pEC50 is 7.00 to 9.00.

Take `C[C@@H]1Cc2nn3c(c2CN1C(=O)Nc1ccc(F)c(Cl)c1)C(=O)N(C)OC(CF)C3` (single isomer, unassigned) [Compound 088_E2, (4R*,9R)—N-(3-chloro-4-fluorophenyl)-4-(fluoromethyl)-2,9-dimethyl-1-oxo-1,4,5,8,9,11-hexahydropyrido[4′,3′:3,4]pyrazolo[5,1-d][1,2,5]oxadiazepine-10(2H)-carboxamide]: the pEC50 was 7.00 to 9.00.

For the compound `C[C@@H]1Cc2nn3c(c2CN1C(=O)Nc1ccc(F)c(Br)c1F)C(=O)N(C)OC(CO)C3` (single isomer, unassigned) [Compound 092_E2, (4R*,9R)—N-(3-bromo-2,4-difluorophenyl)-4-(hydroxymethyl)-2,9-dimethyl-1-oxo-1,4,5,8,9,11-hexahydropyrido[4′,3′:3,4]pyrazolo[5,1-d][1,2,5]oxadiazepine-10(2H)-carboxamide], the pEC50 was 7.00 to 9.00.

Turning to `C[C@@H]1Cc2nn3c(c2CN1C(=O)Nc1cc(Br)c(F)cc1F)C(=O)N(C)OC(COCC(F)F)C3` (single isomer, unassigned) [Compound 108_D1, (4S*,9R)—N-(5-bromo-2,4-difluorophenyl)-4-((2,2-difluoroethoxy)methyl)-2,9-dimethyl-1-oxo-1,4,5,8,9,11-hexahydropyrido[4′,3′:3,4]pyrazolo[5,1-d][1,2,5]oxadiazepine-10(2H)-carboxamide], the pEC50 was 6.30 to 7.00.

As for `C[C@@H]1Cc2nn3c(c2CN1C(=O)Nc1cc(Br)c(F)cc1F)C(=O)N(C)OC(COCC(F)F)C3` (single isomer, unassigned) [Compound 108_D2, (4R*,9R)—N-(5-bromo-2,4-difluorophenyl)-4-((2,2-difluoroethoxy)methyl)-2,9-dimethyl-1-oxo-1,4,5,8,9,11-hexahydropyrido[4′,3′:3,4]pyrazolo[5,1-d][1,2,5]oxadiazepine-10(2H)-carboxamide], the pEC50 is 7.00 to 9.00.

`CNC(=O)C1Cn2nc3c(c2C(=O)N(C)O1)CN(C(=O)Nc1ccc(F)c(Cl)c1F)[C@H](C)C3` (single isomer, unassigned) [Compound 110_D1, (4S*,9R)—N10-(3-chloro-2,4-difluorophenyl)-N4,2,9-trimethyl-1-oxo-1,4,5,8,9,11-hexahydropyrido[4′,3′:3,4]pyrazolo[5,1-d][1,2,5]oxadiazepine-4,10(2H)-dicarboxamide]: the pEC50 is 6.00 to 6.30.

`CNC(=O)C1Cn2nc3c(c2C(=O)N(C)O1)CN(C(=O)Nc1ccc(F)c(Cl)c1F)[C@H](C)C3` (single isomer, unassigned) [Compound 110_D2, (4R*,9R)—N10-(3-chloro-2,4-difluorophenyl)-N4,2,9-trimethyl-1-oxo-1,4,5,8,9,11-hexahydropyrido[4′,3′:3,4]pyrazolo[5,1-d][1,2,5]oxadiazepine-4,10(2H)-dicarboxamide]: the pEC50 was 7.00 to 9.00.

Still in this assay, the particulars now being: Hepatitis B virus, HepG2.2.15, HBV replication assay (BDNA assay), HepG2.2.15 cells; read-out: DNA EC50.
For `Cc1cc(NC(=O)N2Cc3c(nn4c3C(=O)N(C)OC(CO)C4)C[C@H]2C)ccc1F` (single isomer, unassigned) [Compound 083_E1, (4S*,9R)—N-(4-fluoro-3-methylphenyl)-4-(hydroxymethyl)-2,9-dimethyl-1-oxo-1,4,5,8,9,11-hexahydropyrido[4′,3′:3,4]pyrazolo[5,1-d][1,2,5]oxadiazepine-10(2H)-carboxamide], the negative logarithm of the EC50 (pEC50) was 7.00 to 9.00.

For the compound `C[C@@H]1Cc2nn3c(c2CN1C(=O)Nc1ccc(F)c(Cl)c1)C(=O)N(C)OC(CF)C3` (single isomer, unassigned) [Compound 088_E1, (4S*,9R)—N-(3-chloro-4-fluorophenyl)-4-(fluoromethyl)-2,9-dimethyl-1-oxo-1,4,5,8,9,11-hexahydropyrido[4′,3′:3,4]pyrazolo[5,1-d][1,2,5]oxadiazepine-10(2H)-carboxamide], the pEC50 is 7.00 to 9.00.

For the compound `C[C@@H]1Cc2nn3c(c2CN1C(=O)Nc1ccc(F)c(Br)c1F)C(=O)N(C)OC(CO)C3` (single isomer, unassigned) [Compound 092_E1, (4S*,9R)—N-(3-bromo-2,4-difluorophenyl)-4-(hydroxymethyl)-2,9-dimethyl-1-oxo-1,4,5,8,9,11-hexahydropyrido[4′,3′:3,4]pyrazolo[5,1-d][1,2,5]oxadiazepine-10(2H)-carboxamide], the pEC50 was 7.00 to 9.00.

`C[C@@H]1Cc2nn3c(c2CN1C(=O)Nc1ccc(F)c(Cl)c1)C(=O)N(C)OC(CN(C)C)C3` (single isomer, unassigned) [Compound 093_D1, (4S*,9R)—N-(3-chloro-4-fluorophenyl)-4-((dimethylamino)methyl)-2,9-dimethyl-1-oxo-1,4,5,8,9,11-hexahydropyrido[4′,3′:3,4]pyrazolo[5,1-d][1,2,5]oxadiazepine-10(2H)-carboxamide]: the negative-log EC50 (pEC50) is 7.00 to 9.00.

`C[C@@H]1Cc2nn3c(c2CN1C(=O)Nc1ccc(F)c(C#N)c1)C(=O)N(C)OC(CN)C3` (single isomer, unassigned) [Compound 115_D1, (4S*,9R)-4-(aminomethyl)-N-(3-cyano-4-fluorophenyl)-2,9-dimethyl-1-oxo-1,4,5,8,9,11-hexahydropyrido[4′,3′:3,4]pyrazolo[5,1-d][1,2,5]oxadiazepine-10(2H)-carboxamide]: the pEC50 is 7.00 to 9.00.

With `C[C@@H]1Cc2nn3c(c2CN1C(=O)Nc1ccc(F)c(Cl)c1)C(=O)N(C)OC(COCC(F)F)C3` (single isomer, unassigned) [Compound 121_D1, (4S*,9R)—N-(3-chloro-4-fluorophenyl)-4-((2,2-difluoroethoxy)methyl)-2,9-dimethyl-1-oxo-1,4,5,8,9,11-hexahydropyrido[4′,3′:3,4]pyrazolo[5,1-d][1,2,5]oxadiazepine-10(2H)-carboxamide], the pEC50 was 7.00 to 9.00.

Regarding `CN1OC(CO)Cn2nc3c(c2C1=O)CN(C(=O)Nc1cc(F)c(F)c(Cl)c1F)CC3` (single isomer, unassigned) [Compound 137_E1, (S*)—N-(3-chloro-2,4,5-trifluorophenyl)-4-(hydroxymethyl)-2-methyl-1-oxo-1,4,5,8,9,11-hexahydropyrido[4′,3′:3,4]pyrazolo[5,1-d][1,2,5]oxadiazepine-10(2H)-carboxamide], the pEC50 is 7.00 to 9.00.

For `CN1OC(CO)Cn2nc3c(c2C1=O)CN(C(=O)Nc1c(F)ccc(Cl)c1F)CC3` (single isomer, unassigned) [Compound 138_E1, (S*)—N-(3-chloro-2,6-difluorophenyl)-4-(hydroxymethyl)-2-methyl-1-oxo-1,4,5,8,9,11-hexahydropyrido[4′,3′:3,4]pyrazolo[5,1-d][1,2,5]oxadiazepine-10(2H)-carboxamide], the pEC50 is 6.30 to 7.00.

`CN1OC(CO)Cn2nc3c(c2C1=O)CN(C(=O)Nc1cc(Cl)ccc1F)CC3` (single isomer, unassigned) [Compound 139_E1, (S*)—N-(5-chloro-2-fluorophenyl)-4-(hydroxymethyl)-2-methyl-1-oxo-1,4,5,8,9,11-hexahydropyrido[4′,3′:3,4]pyrazolo[5,1-d][1,2,5]oxadiazepine-10(2H)-carboxamide]: the pEC50 was 7.00 to 9.00.

With `CN1OC(CO)Cn2nc3c(c2C1=O)CN(C(=O)Nc1cc(Br)cc(F)c1F)CC3` (single isomer, unassigned) [Compound 140_E1, (S*)—N-(5-bromo-2,3-difluorophenyl)-4-(hydroxymethyl)-2-methyl-1-oxo-1,4,5,8,9,11-hexahydropyrido[4′,3′:3,4]pyrazolo[5,1-d][1,2,5]oxadiazepine-10(2H)-carboxamide], the pEC50 was 7.00 to 9.00.
